Earlier results in patent US20070021351A1, “Liver/plasma concentration ratio for dosing hepatitis C virus protease inhibitor” (Schering Corporation, priority 2005, published 2007).

Settings: in vivo; cited from earlier work

| SMILES | volume of distribution |
| --- | --- |
| C[C@H]1O[C@@H](O[C@H]2[C@@H](O)C[C@H](O[C@H]3[C@@H](O)C[C@H](O[C@H]4CC[C@@]5(C)[C@H](CC[C@@H]6[C@@H]5C[C@@H](O)[C@]5(C)[C@@H](C7=CC(=O)OC7)CC[C@]65O)C4)O[C@@H]3C)O[C@@H]2C)C[C@H](O)[C@@H]1O [digoxin, reference compound] | ~450 L |
| CCO [ethanol, Ethanol] | about 35 L |
